Laboratory results as given in PMC10518717, “High-Throughput Screening and Proteomic Characterization of Compounds Targeting Myeloid-Derived Suppressor Cells” (Molecular & Cellular Proteomics : MCP, 2023).

Tested on: NUP-MDSC
Test: Global proteome expression profiling of compound-treated NUP-MDSC (TMT LC-MS/MS)
Assay type: cell-based, mouse
Conditions: for log2 FC cmpd2/cmpd3: cmpd2 versus cmpd3, NUP-MDSC; for normalized reporter intensities R1: replicate R1, compound-treated NUP-MDSC; for normalized reporter intensities R3: replicate R3, compound-treated NUP-MDSC
Description: After treatments, medium was removed, cells were washed twice with PBS, and the cell pellets were further subjected to proteomic sample preparation.
The cell pellet was reconstituted in 2% SDS in 50 mM Tris–HCl pH 7.5 and lysed by heating to 95 °C for 10 min. One microliter of 100% TFA was added to each sample to hydrolyze DNA, and the pH was subsequently adjusted to 8.5 with 3 M Tris solution. Disulfide bonds were reduced with 10 mM DTT for 45 min at 37 °C, followed by alkylation of cysteines with 55 mM CAA for 30 min at room temperature. Prior to tryptic digestion, the detergent was removed from lysates by SP3 cleanup on an Agilent BRAVO system (Agilent Technologies), following the protocol first described by Hughes et al. ([34]). Briefly, lysate containing 200 μg of protein was mixed with SP3 beads, and proteins were precipitated onto a 50:50 mixture of Sera-Mag Speed Bead types A and B (Thermo Fisher Scientific) in 58% acetonitrile. Beads were washed three times with 80% ethanol in water and once with acetonitrile. Tryptic digest was performed in 100 μl of digestion buffer (2 mM CaCl2 in 25 mM Hepes, pH 8.5) with a 1:50 enzyme-to-protein ratio. Bead-precipitated proteins were digested at 37 °C overnight. On the next day, the supernatant of each sample was transferred to a new well and vacuum dried.
Dried peptides were reconstituted in water and labeled with the respective TMT10plex-labeling reagent as described previously ([35]) with a protein to tandem mass tag (TMT) reagent ratio of 1:2. Labeled samples were pooled, vacuum dried, and reconstituted in 0.1% formic acid (FA) prior to desalting on SepPAC50 columns (waters corp.). Peptides were fractionated using a Dionex Ultra 3000 HPLC system with a Waters XBridge BEH130 C18 3.5 um 2.1 × 250 mm column as described previously ([36]). Ninety-six fractions were collected and pooled to 48. For the full proteome analysis, one fifth of each fraction was transferred to a new 96-well plate and both plates were vacuum dried. For the phosphopeptide analysis, dried peptides were reconstituted in 55 μl 0.1% TFA in 30% ACN, pooled from 48 to 12 fractions, and mixed with 70 μl priming buffer (0.1% TFA, 100% ACN). Phosphopeptides were enriched from each of the 12 fractions using Fe(III)-IMAC-NTA cartridges on the AssayMAP BRAVO (Agilent Technologies) platform as described previously ([36]). Phosphopeptides were eluted with 60 μl 1% ammonia, vacuum dried, and stored at −20 °C prior to LC-MS/MS analysis.
The Fusion Lumos was operated in data-dependent acquisition and positive ionization mode. Samples were measured employing a MS3 method. In brief, full scan MS1 spectra were recorded in the orbitrap (OT) from 360 to 1560 m/z at 60,000 resolution using an automatic gain control (AGC) target value of 4e5 charges and a maximum injection time (maxIT) of 50 ms. Iontrap-MS2 spectra for peptide identification were acquired using higher energy collision dissociation (HCD) fragmentation with 32% normalized collision energy (NCE), an isolation window of 0.6 m/z, and an AGC target value of 1.2e4 charges. To obtain quantitative information on TMT reporter ions, each peptide precursor was fragmented again as for MS2 analysis followed by synchronous selection of the up to eight most intense peptide fragments in the iontrap ([37]) and further fragmentation via HCD using a NCE of 55%. The MS3 scan was recorded in the OT at 50,000 resolution (scan range 100–1000 m/z, isolation window of 1.2 m/z, AGC of 1e5 charges, maxIT of 86 ms). The cycle time was 1.2 s, and the dynamic exclusion lasted for 50 s.
Peptide, protein, and phosphorylation site identification and quantification were performed with MaxQuant software (v. 1.6.3.3, https://www.maxquant.org/) with standard settings for reporter ion MS3 unless described otherwise ([39]). Isotope impurities of the TMT lot were specified to allow MaxQuant the automated correction of TMT intensities. […]

[1] = protein 0610011F06Rik / Mettl26 (Q9DCS2)
[2] = protein 0610037L13Rik / Czib (Q8BHG2)
[3] = protein Trappc2 (Q8R3W2;Q9CQP2)

Structure (SMILES) | expression of proteins associated with detoxification by peroxiredoxin and further ROS-reducing proteins (Prdx1, Txnrd1, Srxn1, Cat, Nqo1, Blvrb) (3xEC50, 72 h, relative to compound 3 at 10 μM) | log2 FC cmpd2/cmpd3 [1] | normalized reporter intensities R1 [1] | normalized reporter intensities R3 [1] | log2 FC cmpd2/cmpd3 [2] | normalized reporter intensities R1 [2] | normalized reporter intensities R3 [2] | log2 FC cmpd2/cmpd3 (protein Bap18 (D3Z687;Q9DCT6)) | normalized reporter intensities R1 (protein Bap18 (D3Z687;Q9DCT6)) | normalized reporter intensities R3 (protein Bap18 (D3Z687;Q9DCT6)) | log2 FC cmpd2/cmpd3 [3] | normalized reporter intensities R1 [3] | normalized reporter intensities R3 [3]
CCOC(=O)c1nnn(-c2nn3nnnc3c3ccccc23)c1C [compound 2] | upregulated | -0.03832 | 20.3044 | 20.1769 | -0.06333 | 20.0663 | 19.9557 | -0.2777 | 16.8475 | 16.9614 | -0.004852 | 18.4905 | 18.3959
c1ccc2c(c1)c(-n1ccnc1)nn1nnnc21 [compound 3] | – | – | 20.3551 | 20.1713 | – | 20.1036 | 20.057 | – | 17.1673 | 17.2868 | – | 18.5332 | 18.3626
